# Laboratory results reported in US20180099931A1 (AbbVie S.à.r.l., priority 2016, published 2018).
# Where two headings read alike, the source gives them in different places.
# Molecular target: T1, F508delCFTR (Homo sapiens, UniProt P13569, DEL508-508)
# T1 construct: expressed in transfected cells; host or cells: CFBE41o- human lung-derived epithelial cells (CFBE4lo-F508delCFTR-HRP), doxycycline-inducible
# Assay: Cell Surface Expression-Horse Radish Peroxidase (CSE-HRP) Assay;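 on Maximum % activity (with co-corrector): co-corrector and positive control are both the same reference corrector at 2 µM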;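 on Maximum % activity (without co-corrector): percent of the 2 µM on-plate positive control corrector response above DMSO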
# Format: cell-based
# Details: for Emax / Maximum % activity (with co-corrector): maximum at any tested concentration, normalized to on-plate positive control; for Emax: read-out: Maximum % activity (without co-corrector)
# Procedure: Cell Surface Expression-Horse Radish Peroxidase (CSE-HRP) Assay;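 on Maximum % activity (with co-corrector): co-corrector and positive control are both the same reference corrector at 2 µM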;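 on Maximum % activity (without co-corrector): percent of the 2 µM on-plate positive control corrector response above DMSO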
# The development was achieved by expressing the F508delCFTR mutation along with a horseradish peroxidase (HRP) in the fourth exofacial loop, and then measuring the HRP activity using luminescence readout from these cells, CFBE4lo-F508delCFTR-HRP, that were incubated overnight with the test corrector compounds, either without or with the co-corrector. […] The test compounds were then added either without or with a co-corrector at the required concentrations and further incubated for 18-24 hours at 33° C. The highest concentration tested was 20 μM with an 8-point concentration response curve using a 3-fold dilution in both the test compound without or with the co-corrector. Three replicate plates were run to determine one EC50. All plates contained negative controls (dimethyl sulfoxide, DMSO) and positive control (2 μM of 3-[(2R,4R)-4-({[1-(2,2-difluoro-1,3-benzodioxol-5-yl)cyclopropyl]carbonyl}amino)-7-methoxy-3,4-dihydro-2H-chromen-2-yl]benzoic acid) as well as on-plate concentration response of the positive control. […] The raw counts from the experiment were analyzed using Accelrys® Assay Explorer v3.3.
# 1−[3*SDPositive Control+3*SDNegative Control/Absolute(MeanPositive Control−MeanNegative Control)]
# wherein “SD” is standard deviation.
# The % activity measured at each of the 8 test concentrations of the test compound added either without or with a co-corrector (2 μM of 3-[(2R,4R)-4-({[1-(2,2-difluoro-1,3-benzodioxol-5-yl)cyclopropyl]carbonyl}amino)-7-methoxy-3,4-dihydro-2H-chromen-2-yl]benzoic acid) was normalized to the on-plate positive control using the following formulae:
# % activity(Test compound without co-corrector)=[(test compound without co-corrector response−DMSO response)/(positive control response−DMSO response)]*100
# % activity(Test compound with co-corrector)=[(test compound with co-corrector response−DMSO response)/(positive control response−DMSO response)]*100
# The maximum % activity achieved for the test compound either without or with a co-corrector at any tested concentration is presented in Table 4 along with the respective EC50's calculated using the following general sigmoidal curve with variable Hill slope equation (described as Model 42 in the Accelrys® Assay Explorer v3.3 software):
# General sigmoidal curve with concentration, response, top, bottom, EC50 and Hill slope. This model describes a sigmoidal curve with an adjustable baseline, a. The equation can be used to fit curves where response is either increasing or decreasing with respect to the independent variable, “x”.
# “x” is a concentration of drug under test. “y” is the response. “a” is the maximum response, and “d” is the minimum response “c” is the inflection point (EC50) for the curve. That is, “y” is halfway between the lower and upper asymptotes when x=c. “b” is the slope-factor or Hill coefficient. The sign of b is positive when the response increases with increasing dose and is negative when the response decreases with increasing dose (inhibition).
# [1] = test compound without co-corrector
# [2] = test compound without co-corrector, read-out: EC50 (without co-corrector)
# [3] = with co-corrector (2 μM of 3-[(2R,4R)-4-({[1-(2,2-difluoro-1,3-benzodioxol-5-yl)cyclopropyl]carbonyl}amino)-7-methoxy-3,4-dihydro-2H-chromen-2-yl]benzoic acid)
# [4] = with co-corrector (2 μM of 3-[(2R,4R)-4-({[1-(2,2-difluoro-1,3-benzodioxol-5-yl)cyclopropyl]carbonyl}amino)-7-methoxy-3,4-dihydro-2H-chromen-2-yl]benzoic acid), read-out: EC50 (with co-corrector)
# [5] = CSE-HRP, test compound without co-corrector, read-out: EC50 (without co-corrector)
# [6] = CSE-HRP, with co-corrector (2 μM of 3-[(2R,4R)-4-({[1-(2,2-difluoro-1,3-benzodioxol-5-yl)cyclopropyl]carbonyl}amino)-7-methoxy-3,4-dihydro-2H-chromen-2-yl]benzoic acid), read-out: EC50 (with co-corrector)
# [7] = CSE-HRP, with co-corrector (2 μM)
# T1 sequence (P13569 with tags, fused parts or gaps DEL508-508): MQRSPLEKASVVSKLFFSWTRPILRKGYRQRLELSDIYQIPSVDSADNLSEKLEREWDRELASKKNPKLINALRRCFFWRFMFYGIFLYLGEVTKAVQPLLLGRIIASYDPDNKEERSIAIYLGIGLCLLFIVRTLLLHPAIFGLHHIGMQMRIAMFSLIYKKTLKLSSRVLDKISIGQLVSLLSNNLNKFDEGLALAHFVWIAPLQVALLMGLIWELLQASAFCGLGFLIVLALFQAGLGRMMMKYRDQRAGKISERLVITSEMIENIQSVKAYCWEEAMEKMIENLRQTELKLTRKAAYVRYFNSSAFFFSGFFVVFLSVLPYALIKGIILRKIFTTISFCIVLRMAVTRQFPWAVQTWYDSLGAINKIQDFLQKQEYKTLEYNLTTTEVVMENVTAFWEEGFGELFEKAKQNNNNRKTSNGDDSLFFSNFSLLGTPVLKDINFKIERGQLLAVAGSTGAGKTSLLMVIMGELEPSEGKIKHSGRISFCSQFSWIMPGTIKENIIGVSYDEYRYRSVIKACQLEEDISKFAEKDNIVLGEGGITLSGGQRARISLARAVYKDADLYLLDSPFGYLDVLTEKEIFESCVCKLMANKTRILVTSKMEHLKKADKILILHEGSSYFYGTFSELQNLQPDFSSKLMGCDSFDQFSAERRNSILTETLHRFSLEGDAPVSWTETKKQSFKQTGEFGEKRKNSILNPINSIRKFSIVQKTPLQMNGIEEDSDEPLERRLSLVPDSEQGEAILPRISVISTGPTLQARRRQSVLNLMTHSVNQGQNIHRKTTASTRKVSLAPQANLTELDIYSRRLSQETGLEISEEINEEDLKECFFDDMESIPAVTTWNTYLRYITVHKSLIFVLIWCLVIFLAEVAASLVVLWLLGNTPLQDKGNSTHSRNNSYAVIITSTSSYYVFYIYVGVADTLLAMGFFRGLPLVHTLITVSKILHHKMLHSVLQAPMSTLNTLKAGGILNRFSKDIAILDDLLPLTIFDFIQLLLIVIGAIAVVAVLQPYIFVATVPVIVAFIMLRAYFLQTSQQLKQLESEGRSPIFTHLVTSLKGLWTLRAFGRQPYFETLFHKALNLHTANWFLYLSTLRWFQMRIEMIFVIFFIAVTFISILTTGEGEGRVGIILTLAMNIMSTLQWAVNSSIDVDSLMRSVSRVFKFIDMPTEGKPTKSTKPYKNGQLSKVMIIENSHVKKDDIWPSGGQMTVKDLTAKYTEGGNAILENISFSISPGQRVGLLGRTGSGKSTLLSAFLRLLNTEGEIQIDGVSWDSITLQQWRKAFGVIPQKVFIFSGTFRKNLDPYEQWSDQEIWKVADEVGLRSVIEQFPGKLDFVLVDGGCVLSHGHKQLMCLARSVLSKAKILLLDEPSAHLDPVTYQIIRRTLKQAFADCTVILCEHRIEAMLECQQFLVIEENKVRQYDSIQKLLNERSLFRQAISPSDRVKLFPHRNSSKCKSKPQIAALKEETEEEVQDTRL
Emax [1],EC50 [2],Maximum % activity (with co-corrector) [3],EC50 [4],EC50 [5],EC50 [6],Maximum % activity (with co-corrector) [7],"Emax (CSE-HRP, without co-corrector)",Maximum % activity (with co-corrector) (with co-corrector (2 μM)),Emax (without co-corrector),SMILES
–,1000 to 10000 nM,–,< 1000 nM,–,–,–,–,+++ (≥350),> 200%,"COc1nc2ccccc2cc1CN[C@H]1[C@H](C(C)(C)C)[C@@H](C(=O)O)N(C(=O)[C@@H]2CCCO2)[C@H]1c1ccccc1C(C)C [Example 100, (2S,3S,4S,5S)-3-tert-butyl-4-{[(2-methoxyquinolin-3-yl)methyl]amino}-1-[(2S)-oxolane-2-carbonyl]-5-[2-(propan-2-yl)phenyl]pyrrolidine-2-carboxylic acid]"
> 200%,1000 to 10000 nM,–,< 1000 nM,–,–,–,–,+++ (≥350),–,COc1ccc(C(F)(F)F)cc1CN[C@H]1[C@H](C(C)(C)C)[C@@H](C(=O)O)N(C(=O)C2CCC(C)C2)[C@H]1c1ccccc1 (stereo partly shown) [III-198]
< 100%,> 10000 nM,++ (≥150 and <350),1000 to 10000 nM,–,–,–,–,–,–,COc1ccc(C(F)(F)F)cc1CN[C@@H]1[C@@H](C(C)(C)C)[C@H](C(=O)O)N(C(=O)[C@H](OC)c2ccccc2)[C@@H]1c1ccccc1 [III-68]
–,1000 to 10000 nM,–,< 1000 nM,–,–,–,–,+++ (≥350),> 200%,COc1ccc(C2(C(F)(F)F)CC2)cc1CN[C@H]1[C@H](C(C)(C)C)[C@@H](C(=O)O)N(C(=O)OC(C)C)[C@H]1c1ccccc1 [Example I-141]
< 100%,1000 to 10000 nM,++ (≥150 and <350),1000 to 10000 nM,–,–,–,–,–,–,COc1nnc(C2CCC2)cc1CN[C@H]1[C@H](C(C)(C)C)[C@@H](C(=O)O)N(C(=O)C2CCCCC2)[C@H]1c1ccccc1 [II-496]
100 to 200%,1000 to 10000 nM,+++ (≥350),1000 to 10000 nM,–,–,–,–,–,–,COc1nc(C(C)(C)C)ccc1CN[C@H]1[C@H](C(C)(C)C)[C@@H](C(=O)O)N(C(=O)C2CCCCC2)[C@H]1c1ccccc1F [II-525]
–,–,–,–,1000 to 10000 nM,< 1000 nM,+++ (≥350),< 100%,–,–,COc1ccc(Cl)c2c1CN([C@H]1[C@H](C(C)(C)C)[C@@H](C(=O)O)N(C(=O)[C@@H]3CCCCO3)[C@H]1c1ccccc1C(C)C)C2 [Example I-308]
< 100%,< 1000 nM,–,1000 to 10000 nM,–,–,–,–,+++ (≥350),–,CC(C)(C)[C@H]1[C@H](NCc2cc(Br)ccc2OC(F)F)[C@H](c2ccccc2)N(C(=O)C2CCCCC2)[C@@H]1C(=O)O [III-131]
< 100%,1000 to 10000 nM,++ (≥150 and <350),1000 to 10000 nM,–,–,–,–,–,–,COc1cccc(CN[C@@H]2[C@@H](C(C)(C)C)[C@H](C(=O)O)N(C(=O)C3CCCCC3)[C@@H]2c2ccccc2)n1 (racemic) [III-19]

# Further lines, the compound ahead of its results:
SMILES,Emax [1],EC50 [2],Maximum % activity (with co-corrector) [3],EC50 [4],EC50 [5],EC50 [6],Maximum % activity (with co-corrector) [7],"Emax (CSE-HRP, without co-corrector)",Maximum % activity (with co-corrector) (with co-corrector (2 μM)),Emax (without co-corrector)
COc1ncc(C(F)(F)F)cc1CN[C@H]1[C@H](C(C)(C)C)[C@@H](C(=O)O)N(C(=O)C2CCC(C)(C)O2)[C@H]1c1ccccc1 (stereo partly shown) [II-434],100 to 200%,1000 to 10000 nM,+++ (≥350),1000 to 10000 nM,–,–,–,–,–,–
COc1ccc(C2CCCCC2)cc1CN[C@H]1[C@H](C(C)(C)OC)[C@@H](C(=O)O)N(C(=O)C2CCCCC2)[C@H]1c1ccccc1 [II-257],–,–,–,–,< 1000 nM,< 1000 nM,+++ (≥350),> 200%,–,–
COc1nc(C(C)(C)C)ccc1CN[C@H]1[C@H](C(C)(C)C)[C@@H](C(=O)O)N(C(=O)[C@@H]2OC[C@@H]3CCC[C@@H]32)[C@H]1c1ccccc1 (relative stereo) [II-431],100 to 200%,< 1000 nM,+++ (≥350),< 1000 nM,–,–,–,–,–,–
COc1ccc(C23CC(C2)C3)cc1CN[C@H]1[C@H](C(C)(C)C)[C@@H](C(=O)O)N(C(=O)C2CCCCC2)[C@H]1c1ccccc1OC [II-484],100 to 200%,< 1000 nM,+++ (≥350),< 1000 nM,–,–,–,–,–,–
"COc1ccc(C(C)(C)C)cc1CN[C@H]1[C@H](C(C)(C)C)[C@@H](C(=O)NS(C)(=O)=O)N(C(=O)C2CCCCC2)[C@H]1c1ccccc1 [Example 58, (2S,3S,4S,5S)-3-tert-butyl-4-{[(5-tert-butyl-2-methoxyphenyl)methyl]amino}-1-(cyclohexanecarbonyl)-N-(methanesulfonyl)-5-phenylpyrrolidine-2-carboxamide]",–,1000 to 10000 nM,–,1000 to 10000 nM,–,–,–,–,++ (≥150 and <350),< 100%
COc1ccc(C2(C)CCC2)cc1CN[C@H]1[C@H](C(C)(C)C)[C@@H](C(=O)O)N(C(=O)[C@@H]2CCCCO2)[C@H]1c1ccccc1C(C)C [Example I-304],–,–,–,–,< 1000 nM,< 1000 nM,+++ (≥350),> 200%,–,–
"COc1ccc(C(C)(C)C)cc1CN[C@H]1[C@H](C(C)(C)C)[C@@H](C(=O)O)N(C(=O)[C@@H]2CCCO2)[C@H]1c1ccccc1C1CC1 [Example 108, (2S,3S,4S,5S)-3-tert-butyl-4-{[(5-tert-butyl-2-methoxyphenyl)methyl]amino}-5-(2-cyclopropylphenyl)-1-[(2S)-oxolane-2-carbonyl]pyrrolidine-2-carboxylic acid]",–,1000 to 10000 nM,–,1000 to 10000 nM,–,–,–,–,+++ (≥350),> 200%
COc1ccc(C(C)(C)C)cc1CN[C@H]1[C@H](C(C)(C)C)[C@@H](C(=O)O)N(C(=O)c2ccc(OC(F)(F)F)cc2)[C@H]1c1cccnc1N(C)C [II-467],100 to 200%,< 1000 nM,+++ (≥350),< 1000 nM,–,–,–,–,–,–
CC(C)(C)[C@@H]1[C@@H](NCc2cc(C(F)(F)F)cnc2OCCO)[C@@H](c2ccccc2)N(C(=O)C2CCCCC2)[C@H]1C(=O)O (racemic) [III-87],< 100%,> 10000 nM,++ (≥150 and <350),1000 to 10000 nM,–,–,–,–,–,–
CC(C)(C)[C@H]1[C@H](NCc2ccc(OC(F)(F)F)c(F)c2)[C@H](c2ccccc2)N(C(=O)C2CCCCC2)[C@@H]1C(=O)O [III-128],< 100%,> 10000 nM,–,1000 to 10000 nM,–,–,–,–,++ (≥150 and <350),–
"COc1ccc(C2(C)CCC2)cc1CN[C@H]1[C@H](C(C)(C)C)[C@@H](C(=O)O)N(C(=O)[C@@H]2CCCCO2)[C@H]1c1cccnc1N(C)C [Example 60, (2S,3S,4S,5S)-3-tert-butyl-5-[2-(dimethylamino)pyridin-3-yl]-4-({[2-methoxy-5-(1-methylcyclobutyl)phenyl]methyl}amino)-1-[(2S)-oxane-2-carbonyl]pyrrolidine-2-carboxylic acid]",–,1000 to 10000 nM,–,1000 to 10000 nM,–,–,–,–,+++ (≥350),> 200%
COc1ccc(OC(F)(F)F)cc1CN[C@H]1[C@H](C(C)(C)C)[C@@H](C(=O)O)N(C(=O)OC(C)C)[C@H]1c1cccnc1OC(C)C [III-231],> 200%,1000 to 10000 nM,–,1000 to 10000 nM,–,–,–,–,+++ (≥350),–
COc1cc(C(F)(F)F)ccc1CN[C@H]1[C@H](C(C)(C)C)[C@@H](C(=O)O)N(C(=O)[C@H]2CCCCO2)[C@H]1c1cccnc1N(C)C [II-494],< 100%,1000 to 10000 nM,++ (≥150 and <350),1000 to 10000 nM,–,–,–,–,–,–
